Publication PMC10272112 (Nature Communications, 2023)
Where “and” joins values, the source holds several entries; their conditions need not be identical. Identical values can stand only once.

What was measured:
HDAC3/NcoR2 complex = molecular target: T1, HDAC3/NcoR2 complex (Homo sapiens, UniProt O15379); assay: HDAC-Glo assay; assay type: biochemical; details: read-out: log EC50 from dose-dependent HDAC inhibition curves (converted)
T1 construct: purchased BPS Bioscience 50003
Protocol: (§1) To validate the inhibition of HDACs by LA and LM and elaborate on the structure-activity relationship (SAR) of enantiomers as well as oxidized versus reduced forms of the molecules, we performed enzyme activity assays for recombinant HDAC1,2,3,6,8 as well as FRET-based binding assay for recombinant HDAC10.
(§2) The experiments were performed according to ref. [48]. […] Drug dosing was performed with a D300e Digital Dispenser (Tecan). HDACs (7 ng/mL for HDAC1, 25 ng/mL for HDAC2, 200 ng/mL for HDAC3/Ncor2 complex, 100 ng/mL for HDAC6, 200 ng/mL for HDAC8) and inhibitors were incubated together at room temperature (RT) for 30 min. After the addition of the HDAC-Glo™ I/II reagent, plates were shaken (800 rpm orbital shaker, 30 s), centrifuged (300 g, 1 min), and incubated at RT for 30 min. Luminescence was detected with a CLARIOstar (BMG Labtech) plate reader.

HDAC2 = HDAC2 (Homo sapiens, UniProt Q92769); assay: HDAC-Glo assay; assay type: biochemical; set-up: purchased BPS Bioscience 50002; details: read-out: log EC50 from dose-dependent HDAC inhibition curves (converted)
Protocol: as §1, §2

HDAC6 = molecular target: T2, HDAC6 (Homo sapiens, UniProt Q9UBN7); assay: HDAC-Glo assay; assay type: biochemical; set-up: purchased BPS Bioscience 50006; details: read-out: log EC50 from dose-dependent HDAC inhibition curves (converted)
T2 sequence (Q9UBN7 1-1215): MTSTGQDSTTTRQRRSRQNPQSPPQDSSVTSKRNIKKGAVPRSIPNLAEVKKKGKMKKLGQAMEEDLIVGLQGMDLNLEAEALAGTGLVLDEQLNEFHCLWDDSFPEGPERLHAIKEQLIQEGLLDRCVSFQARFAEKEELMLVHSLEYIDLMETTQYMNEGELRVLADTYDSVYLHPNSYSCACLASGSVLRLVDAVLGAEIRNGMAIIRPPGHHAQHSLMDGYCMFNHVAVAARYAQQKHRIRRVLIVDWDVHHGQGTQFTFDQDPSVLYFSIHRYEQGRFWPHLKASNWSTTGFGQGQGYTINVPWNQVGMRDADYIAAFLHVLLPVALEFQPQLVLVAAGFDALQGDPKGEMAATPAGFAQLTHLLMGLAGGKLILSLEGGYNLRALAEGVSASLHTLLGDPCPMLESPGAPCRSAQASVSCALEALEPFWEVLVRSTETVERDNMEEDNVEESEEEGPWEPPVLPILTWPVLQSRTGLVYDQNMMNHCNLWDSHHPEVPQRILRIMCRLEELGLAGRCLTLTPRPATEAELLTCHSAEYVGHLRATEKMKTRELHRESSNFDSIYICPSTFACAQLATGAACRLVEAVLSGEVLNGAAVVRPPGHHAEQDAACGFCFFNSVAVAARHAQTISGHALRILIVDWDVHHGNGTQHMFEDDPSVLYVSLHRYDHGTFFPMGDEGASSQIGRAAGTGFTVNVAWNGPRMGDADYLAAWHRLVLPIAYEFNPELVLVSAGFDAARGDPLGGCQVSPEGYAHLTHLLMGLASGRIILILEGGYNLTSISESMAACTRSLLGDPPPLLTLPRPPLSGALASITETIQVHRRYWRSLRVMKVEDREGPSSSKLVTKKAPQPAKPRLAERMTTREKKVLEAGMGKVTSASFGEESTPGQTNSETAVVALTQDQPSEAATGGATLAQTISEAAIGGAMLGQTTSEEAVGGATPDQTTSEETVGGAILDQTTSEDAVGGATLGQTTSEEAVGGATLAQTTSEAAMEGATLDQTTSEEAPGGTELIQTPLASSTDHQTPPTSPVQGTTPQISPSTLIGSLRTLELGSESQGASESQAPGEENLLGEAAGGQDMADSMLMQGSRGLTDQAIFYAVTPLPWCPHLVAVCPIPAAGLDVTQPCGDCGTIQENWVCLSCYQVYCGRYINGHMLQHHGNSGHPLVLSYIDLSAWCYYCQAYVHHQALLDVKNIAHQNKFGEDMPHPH
Protocol: as §1, §2

HDAC8 = molecular target: T3, HDAC8 (Homo sapiens, UniProt Q9BY41); assay: HDAC-Glo assay; assay type: biochemical; set-up: purchased BPS Bioscience 50008; details: read-out: log EC50 from dose-dependent HDAC inhibition curves (converted)
T3 sequence (Q9BY41 1-377): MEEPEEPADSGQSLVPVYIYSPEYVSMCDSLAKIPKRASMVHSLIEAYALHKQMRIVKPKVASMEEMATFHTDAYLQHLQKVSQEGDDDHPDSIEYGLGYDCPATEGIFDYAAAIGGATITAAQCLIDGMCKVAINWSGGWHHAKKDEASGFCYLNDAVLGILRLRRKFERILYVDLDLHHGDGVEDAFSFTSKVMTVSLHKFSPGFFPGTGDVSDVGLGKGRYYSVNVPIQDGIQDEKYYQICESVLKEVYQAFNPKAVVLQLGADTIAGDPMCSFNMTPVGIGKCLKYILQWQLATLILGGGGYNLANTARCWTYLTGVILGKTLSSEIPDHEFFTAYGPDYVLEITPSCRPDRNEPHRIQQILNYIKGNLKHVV
Protocol: as §1, §2

HDAC1 = HDAC1 (Homo sapiens, UniProt Q13547); assay: HDAC-Glo assay; assay type: biochemical; set-up: purchased BPS Bioscience 50051; details: for raw luminescence signal, HDAC1 inhibition: 0.5 M TCEP
Protocol: as §1, §2

α-Tubulin AcK40 = assay: α-tubulin acetylation detection by western blot, CBP-HA transfected HEK293T; assay type: cell-based; details: HEK293T, ACY-738 5 µM
Protocol: (§3) 0.2 × 10^6 HEK293T (ATCC: CRL-3216) cells were transfected with pcDNA 3.1-HA CBP plasmids (1 μg/well for the 6-well plate) by FuGENE. After 2 days, cells were treated with ACY-738, lipoic acid, and lipoamide for 7 h, then were washed by ice-cold PBS and lysed in Triton lysis buffer (50 mM Tris, pH 8.0, 150 mM NaCl, 1 mM EDTA, 0.1% TritonX-100 and complete EDTA-free protease inhibitors (Roche)) for analysis. To detect protein acetylation, 0.2 μM Trichostatin A and 5 mM nicotinamide were added to PBS for washing, and 10 μM trichostatin A, 10 mM nicotinamide, and 50 mM sodium butyrate were added to Triton lysis buffer.

DDX3X AcK118 [1] = assay: DDX3X acetylation detection by western blot, CBP-HA transfected HEK293T; assay type: cell-based; details: 5 µM
Protocol: as §3

A549 cells [2] = assay: CellRox deep red assay for ROS quantification (with or without arsenite); assay type: cell-based; details: sheet 4d
A549 cells [3] = assay: CellRox deep red assay for tBuOOH-induced ROS; details: NAC 500 ?M; sheet 4c; DMSO mean = 1
Protocol: A549 cells were maintained in DMEM (Sigma) supplemented with 10% fetal bovine serum (Pan Biotech). […] The CellRox assay was performed according to the product guidelines (ThermoFisher). Briefly, cells were treated with lipoic acid, N-acetyl-cysteine (NAC), or vector control (DMSO) for 1 h, followed by a 2 h treatment with 200 µM tert-butyl hydroperoxide, and then stained with 5 µM CellRox Deep Red for 1 h. Cells were washed twice with FluoroBrite DMEM (ThermoFisher) supplemented with 10% FBS before imaging. CellRox Deep Red signal intensity was measured on a Leica DMI 6000 B epifluorescent microscope with a Cy5 filter set. […] Significance was calculated by ANOVA with a post hoc Dunnett’s multiple comparisons test against the DMSO control (GraphPad).

[4] = tested on: HDACs (HDAC1, HDAC2, HDAC6); set-up: method as in earlier work; details: ref Bantscheff et al., Nat Biotech, 2011; Lechner et al., Nat Chem Bio, 2023; read-out: EC50 in comparable chemoproteomic competition assays; cited from earlier work
DDX3X AcK118 [5] = details: 10 µM; cited from earlier work

Sequence of HDAC1 (Q13547 whole entry): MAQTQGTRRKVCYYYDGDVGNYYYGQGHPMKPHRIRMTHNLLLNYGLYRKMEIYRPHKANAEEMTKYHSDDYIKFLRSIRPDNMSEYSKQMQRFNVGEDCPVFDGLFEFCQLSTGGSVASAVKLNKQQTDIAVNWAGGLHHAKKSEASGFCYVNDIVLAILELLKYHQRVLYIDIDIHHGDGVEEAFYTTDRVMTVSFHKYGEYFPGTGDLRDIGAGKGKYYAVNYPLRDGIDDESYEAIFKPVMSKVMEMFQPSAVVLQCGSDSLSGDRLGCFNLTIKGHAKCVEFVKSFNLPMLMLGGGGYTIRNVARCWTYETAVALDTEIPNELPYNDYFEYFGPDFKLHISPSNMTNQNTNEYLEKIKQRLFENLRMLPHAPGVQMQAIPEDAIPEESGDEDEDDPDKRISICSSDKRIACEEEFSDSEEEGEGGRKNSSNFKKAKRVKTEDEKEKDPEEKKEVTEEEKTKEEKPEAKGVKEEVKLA
Sequence of HDAC2 (Q92769 whole entry): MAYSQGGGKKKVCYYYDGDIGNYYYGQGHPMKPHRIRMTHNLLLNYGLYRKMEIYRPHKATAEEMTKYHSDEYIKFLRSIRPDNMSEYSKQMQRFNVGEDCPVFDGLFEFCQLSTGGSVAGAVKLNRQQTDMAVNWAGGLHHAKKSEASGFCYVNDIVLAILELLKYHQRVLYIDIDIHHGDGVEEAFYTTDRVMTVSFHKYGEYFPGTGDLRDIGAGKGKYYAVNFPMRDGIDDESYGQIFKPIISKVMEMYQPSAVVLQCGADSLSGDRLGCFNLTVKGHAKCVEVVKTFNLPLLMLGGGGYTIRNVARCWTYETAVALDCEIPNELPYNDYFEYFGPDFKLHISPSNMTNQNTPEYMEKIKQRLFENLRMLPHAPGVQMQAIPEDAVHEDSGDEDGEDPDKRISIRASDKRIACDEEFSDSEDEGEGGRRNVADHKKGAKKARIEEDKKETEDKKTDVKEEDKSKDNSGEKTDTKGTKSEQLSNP
T1 sequence (O15379 whole entry): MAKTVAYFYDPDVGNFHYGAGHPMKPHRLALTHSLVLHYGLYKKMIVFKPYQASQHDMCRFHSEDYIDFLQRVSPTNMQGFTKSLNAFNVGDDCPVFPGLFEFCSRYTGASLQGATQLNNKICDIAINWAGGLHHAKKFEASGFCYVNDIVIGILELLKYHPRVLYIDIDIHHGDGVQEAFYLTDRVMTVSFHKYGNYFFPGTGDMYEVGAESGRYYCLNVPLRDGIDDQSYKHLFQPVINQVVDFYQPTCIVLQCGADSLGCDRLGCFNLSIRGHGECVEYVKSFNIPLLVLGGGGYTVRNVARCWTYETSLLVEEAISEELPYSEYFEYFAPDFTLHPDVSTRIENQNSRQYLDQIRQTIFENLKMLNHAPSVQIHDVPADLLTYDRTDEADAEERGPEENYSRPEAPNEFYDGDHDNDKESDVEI
T1 sequence (Q9Y618 395-489 partner limits assumed): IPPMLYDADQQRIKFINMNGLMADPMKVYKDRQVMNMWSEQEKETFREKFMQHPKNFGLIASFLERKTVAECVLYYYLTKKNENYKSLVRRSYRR

Structure (SMILES): O=C(O)CCCCC(S)CCS (racemic) [RS LA reduced, (R/S)-dihydrolipoic acid]
- EC50 (HDAC3/NcoR2 complex): 47.5 µM
- EC50 (HDAC2): 33.4 µM
- EC50 (HDAC6): 2.42 µM
- EC50 (HDAC8): 20.2 µM
- raw luminescence signal, HDAC1 inhibition (HDAC1; log10 M -3.30103, 3 technical replicates): 10948 and 11336 and 10633
- raw luminescence signal, HDAC1 inhibition (HDAC1; log10 M -3.82945, 3 technical replicates): 35128 and 33959 and 34884
- raw luminescence signal, HDAC1 inhibition (HDAC1; log10 M -4.35788, 3 technical replicates): 100059 and 96489 and 102534
- raw luminescence signal, HDAC1 inhibition (HDAC1; log10 M -4.88629, 3 technical replicates): 200567 and 200318 and 195985
- raw luminescence signal, HDAC1 inhibition (HDAC1; log10 M -5.41477, 3 technical replicates): 315045 and 314071 and 307544
- raw luminescence signal, HDAC1 inhibition (HDAC1; log10 M -5.94309, 3 technical replicates): 353287 and 345284 and 342473
- raw luminescence signal, HDAC1 inhibition (HDAC1; log10 M -6.47756, 3 technical replicates): 372512 and 378178 and 378301
- raw luminescence signal, HDAC1 inhibition (HDAC1; log10 M -6.87615, 3 technical replicates): 385390 and 377410 and 356944
- EC50 (HDAC1; read-out: log EC50 from dose-dependent HDAC inhibition curves (converted)): 15.1 µM

Structure (SMILES): O=C(NO)c1cnc(NC2(c3ccccc3)CC2)nc1 [ACY-738]
- α-Tubulin AcK40 acetylation level relative to control (α-Tubulin AcK40): 6.5 fold
- DDX3X AcK118 acetylation level relative to control (DDX3X AcK118 [1]): 3.0 fold
- DDX3X AcK118 acetylation level relative to control (DDX3X AcK118 [1]; listed as ACY738): 3 fold

Structure (SMILES): CC(=O)N[C@@H](CS)C(=O)O [NAC, N-acetyl-cysteine]
- ROS (CellRox), relative to DMSO -Ars., Mean (A549 cells [2]; NAC +Ars): 0.6662
- ROS (CellRox), relative to DMSO -Ars., replicate values (A549 cells [2]; NAC +Ars): 0.6371 and 0.672 and 0.6896
- tBuOOH-induced ROS (CellRox), relative to DMSO, Mean (A549 cells [3]): 0.6999
- tBuOOH-induced ROS (CellRox), relative to DMSO, replicate values (A549 cells [3]): 0.7684 and 0.7006 and 0.6306

Structure (SMILES): O=C(O)CCCc1ccccc1 [Phenylbutyric acid]
- EC50 [4]: 300 to 500 µM

Structure (SMILES): CC(C)(C)OO [TBHP]
- ROS (CellRox), relative to DMSO -Ars., Mean (A549 cells [2]; TBHP -Ars): 8.0156
- ROS (CellRox), relative to DMSO -Ars., replicate values (A549 cells [2]; TBHP -Ars): 8.277 and 8.688 and 7.082

Structure (SMILES): CN1CCc2c(c3ccccc3n2Cc2ccc(C(=O)NO)cc2)C1 [Tubastatin A]
- DDX3X hyperacetylation (DDX3X AcK118 [5]): 2.6 fold

Structure (SMILES): CCCC(CCC)C(=O)O [Valproic acid]
- EC50 [4]: 300 to 500 µM
